Assay results from US12053476B2, “Compounds, compositions and methods for cancer patient stratification and cancer treatment” (BAYER PHARMA AKTIENGESELLSCHAFT, priority 2016, dated 2024).

Legend:
A549 = test: Cell proliferation measurement (Cell Titer Glo, 72 h); format: cell-based; conditions: Homo sapiens, A549, lung adenocarcinoma
Description: (§1) The antiproliferative activity of the compounds of the general formula (I) was examined in vitro in human cancer cells. For this purpose, 1000 cells were plated in 384-well plates with appropriate growth medium and incubated at 37° C. overnight. After 24 h, cells on one plate (0 h plate) were treated with 30 μl/cavity of CTG solution (Promega Cell Titer Glo (catalogue #G755B and G756B)) and incubated at room temperature for 10 min, and luminescence was measured by means of a VICTOR V (Perkin Elmer), in order to determine cell viability on commencement of treatment. The cells on the test plate were treated with the compounds of the general formula (I) as and incubated at 37° C. for 72 h. The compounds were added to the cells by means of an HP D300 digital dispenser in a 10-step 2,5-fold dilution series. As control, the cells were treated with vehicle (DMSO at 0.3% final concentration). After 72 h, the cells were treated with 30 μl/cavity of CTG solution (Promega Cell Titer Glo (catalogue #G755B and G756B)) and incubated at room temperature for 10 min, and luminescence was measured by means of a VICTOR V (Perkin Elmer), in order to determine cell viability at the end of treatment. The percentage effect on cell growth and the IC50 derived therefrom were determined for each test substance using the values from the 0 h plate (=maximum inhibition) and the DMSO control (=minimum inhibition). The IC50 values were calculated using a 4-parameter fit.

HeLa = test: as above; format: cell-based; conditions: Homo sapiens, cervical cancer
Description: as §1

SKMEL3 = test: as above; format: cell-based; conditions: Homo sapiens, SK-MEL3, SKMEL3, melanoma
Description: as §1

HeLa cells [1] = test: Compound sensitivity testing in cell lines (cell viability, 48 h); format: cell-based, human; conditions: 48 h
Description: (§2) 1500 NCI-H1734 or 1000 A549 cells were plated in a 384-well plate in 40 μl of RPMI supplemented with 10% Fetal Bovine Serum and 1% Pen/Strep. 24 hours after plating, a compound-library of 1924 small molecules was added at a concentration of 10 μM. Staurosporine was used a positive control for cytotoxicity at a concentration of 10 μM, and DMSO was used a negative control at a concentration of 1%. All compounds were incubated for 48 hours with indicated small molecules. After 48 hours, 384-well plates were removed from the incubator and allowed to cool to room temperature for 20 minutes. Cell viability was assessed by adding 40 μl of a 25% CELLTITERGLO® (Promega) in PBS with a THERMO COMBI™ or multichannel-pipette and incubated for 10 minutes. The luminescence signal was read using a Perkin-Elmer EnVision. Viability percentage was calculated by normalizing to DMSO controls.
1000 HeLa (DMEM), 1000 A549 (RPMI), 500 MCF-7 (DMEM), 4000 PC3 (F12-K), 1000 NCI-H2122 (RPMI) or 1500 NCI-H1563 (RPMI) cells were plated in a 384-well plate in 40 μl of corresponding growth media supplemented with 10% Fetal Bovine Serum. 24 hours after plating, indicated compounds were added at indicated concentrations and incubated for 48 hours. Cell viability was assessed as described in Compound library screening in NCI-H1734 and A549 cell lines.

human full length PDE3A = molecular target: T1, human full length PDE3A (Homo sapiens, UniProt Q14432); test: PDE3A enzyme inhibition (3H-cAMP Scintillation Proximity Assay); format: biochemical; conditions: Sf9 cell extract, 60 min
T1 construct: Sf9 cells overexpressing human full length PDE3A (SB Drug Discovery, UK); purchased SB Drug Discovery, UK; host or cells: Sf9
Description: The commercially available ^3H-cAMP Scintillation Proximity Assay (SPA, Perkin Elmer) system was used for enzyme inhibition studies. For the determination of the in vitro effect of test substances on the PDE3A reactions 2 μl of the respective test compound solution in DMSO (serial dilutions) were placed in wells of microtiter plates (Isoplate-96/200W; Perkin Elmer). 50 μl of a dilution of PDE3A cell extract from Sf9 cells overexpressing human full length PDE3A (SB Drug Discovery, UK) in buffer A (50 mM Tris/HCl pH 7.5, 8.3 mM MgCl2, 1.7 mM EDTA, 0.2% BSA) was added. The dilution of the PDE3A cell extract was chosen such that the reaction kinetics was linear and less than 70% of the substrate was consumed (typical dilution 1:5000). The reaction was started by addition of 50 μl (0.025 μCi) of 1:2000 in buffer A w/o BSA diluted substrate [8-^3H] adenosine 3′, 5′-cyclic phosphate (1 μCi/μl; Perkin Elmer). After incubation at room temperature for 60 min, the reaction was stopped by addition of 25 μl of a suspension containing 18 mg/ml yttrium scintillation proximity beads (Perkin Elmer) in water. The microtiter plates were sealed and measured in a Microbeta scintillation counter (PerkinElmer Wallac). IC50 values were determined from sigmoidal curves by plotting percentage PDE3A activity vs log compound concentration.

PDE3B = molecular target: T2, PDE3B (Homo sapiens, UniProt Q13370); test: PDE3B enzyme inhibition (reported with the 3H-cAMP SPA method); format: biochemical
T2 construct: Caliper (ran the assay)

[2] = In vitro metabolic stability in cryopreserved human hepatocytes; format: in vitro ADME; conditions: 1 μM test compound
Description: Investigation of In Vitro Metabolic Stability in Cryopreserved Human Hepatocytes (Including Calculation of Hepatic In Vivo Blood Clearance (CL) and Maximal Oral Bioavailability (Fmax))
Cryopreserved Hepatocytes (e.g. purchased from Celsis InVitroTechnologies) were briefly thawed, washed with 45 mL pre-warmed in in vitro GRO HT medium and centrifuged for 5 min at 50×g. The cell pellet was resuspended in 5 ml of Krebs-Henseleit […] (KHB). Cell viability was determined by trypan blue exclusion.
For the metabolic stability assay liver cells were distributed in WME containing 5% FCS to glass vials at a density of 1.0×10^6 vital cells/ml. The test compound was added to a final concentration of 1 μM. During incubation, the hepatocyte suspensions were continuously shaken at 580 rpm and aliquots were taken at 2, 8, 16, 30, 45 and 90 min, to which equal volumes of cold methanol were immediately added. Samples were frozen at −20° C. over night, after subsequently centrifuged for 15 minutes at 3000 rpm and the supernatant was analyzed with an Agilent 1290 HPLC-system with LCMS/MS detection.
The half-life of a test compound was determined from the concentration-time plot. From the half-life the intrinsic clearances were calculated. […] The hepatic in vivo blood clearance (CL) and the maximal oral bioavailability (Fmax) was calculated.

NCI-H1734 = test: Compound library screening in NCI-H1734 and A549 cell lines; format: cell-based, human; conditions: NCI-H1734 versus A549, 48 h
Description: To identify anti-cancer compounds with cell-selective cytotoxic activity, an unbiased chemical screen was performed in two lung adenocarcinoma cell lines, A549 and NCI-H1734, both of which harbor oncogenic KRAS mutations and truncating STK11 mutations, and which were TP53 wild type and mutant (R273L), respectively. 1,924 compounds were screened from the Molecular Libraries Small-Molecule Repository validation set in the A549 and NCI-H1734 cell lines at a single concentration of 10 μM in 384-well format in duplicate. As a proxy for cellular viability, ATP content was measured after 48 hours of compound treatment.
as §2, with “After 48 hours, 384-well plates were removed from the incubator and allowed to cool to room temperature for 20 minutes.” left out

PDE3A(677-1141) = molecular target: T3, PDE3A(677-1141) (Homo sapiens, UniProt Q14432); test: Differential scanning fluorimetry (DSF) binding to purified PDE3A catalytic domain; conditions: 5 μM PDE3A, 100 μM compound
T3 construct: purified PDE3A catalytic domain, PDE3A(677-1141)
Description: Binding buffer: 20 mM Hepes pH 7.4, 100 μM TCEP, 1 mM MgCl2, 150 mM NaCl.

PDE3A and SLFN12 complex = molecular target: T4, PDE3A and SLFN12 complex (Homo sapiens, UniProt Q14432); test: DNMDP-induced PDE3A protein interactions by immunoprecipitation and immunoblotting; format: cell-based; conditions: HeLa cells, 10 μM, 4 hours
T4 construct: Immunoprecipitation of endogenous PDE3A in HeLa cells treated with DNMDP; host or cells: HeLa
Excerpt: Binding of DNMDP altered the composition of interacting proteins that were co-immunoprecipitated with PDE3A. […] These proteins specifically interacted with PDE3A in the presence of DNMDP, and were not observed in the trequinsin treated control, whereas a known PDE3B interactor, abhydrolase domain-containing protein 15 (ABHD15, Chavez et al., Biochem. Biophys. Res. Commun. 342, 1218-1222, 2006), was enriched in the immunoprecipitate from trequinsin-treated cells (FIG. 13C and FIG. 14C). The interaction promoted by DNMDP between PDE3A and both SIRT7 and SLFN12 was validated with affinity reagents. Immunoprecipitation of endogenous PDE3A in HeLa cells treated with DNMDP, but not DMSO or trequinsin, enhanced complex formation of ectopically expressed V5-tagged SIRT7 and SLFN12 with PDE3A, as evidenced by coimmunoprecipitation (FIG. 19). […] Without being bound to theory, PDE3A/SLFN12 complex formation correlated with cell killing (FIGS. 21A-21C).
HeLa cells were transfected with ORF overexpression constructs expressing V5-tagged SIRT7, V5-tagged SLFN12, or V5-tagged GFP. ORF expression constructs were obtained from the TRC (clone IDs: TRCN0000468231, TRCN0000476272, ccsbBroad304_99997). At 72 hours post transfection, cells were treated with 10 μM DNMDP or trequinsin for 4 hours followed by lysis using the ModRipa lysis buffer and immunoprecipitation of PDE3A. […]

HeLa cells [3] = test: Caspase activity in HeLa cells (Caspase-Glo); format: cell-based, human; conditions: 48 h
Description: Thus one aspect of the invention is the use of DNMDP for the treatment of lung adenocarcinoma and cervical cancer.
1000 HeLa cells were plated in 384-well plate in 40 μl of corresponding growth media supplemented with 10% Fetal Bovine Serum. 24 hours after plating, indicated compounds were added at indicated concentrations and incubated for 48 hours. Caspase-Glo from Promega was added according to the manufacturers recommendations and luminescence was determined as described in Compound library screening in NCI-H1734 and A549 cell lines.

T2 sequence (Q13370 whole entry, species assumed): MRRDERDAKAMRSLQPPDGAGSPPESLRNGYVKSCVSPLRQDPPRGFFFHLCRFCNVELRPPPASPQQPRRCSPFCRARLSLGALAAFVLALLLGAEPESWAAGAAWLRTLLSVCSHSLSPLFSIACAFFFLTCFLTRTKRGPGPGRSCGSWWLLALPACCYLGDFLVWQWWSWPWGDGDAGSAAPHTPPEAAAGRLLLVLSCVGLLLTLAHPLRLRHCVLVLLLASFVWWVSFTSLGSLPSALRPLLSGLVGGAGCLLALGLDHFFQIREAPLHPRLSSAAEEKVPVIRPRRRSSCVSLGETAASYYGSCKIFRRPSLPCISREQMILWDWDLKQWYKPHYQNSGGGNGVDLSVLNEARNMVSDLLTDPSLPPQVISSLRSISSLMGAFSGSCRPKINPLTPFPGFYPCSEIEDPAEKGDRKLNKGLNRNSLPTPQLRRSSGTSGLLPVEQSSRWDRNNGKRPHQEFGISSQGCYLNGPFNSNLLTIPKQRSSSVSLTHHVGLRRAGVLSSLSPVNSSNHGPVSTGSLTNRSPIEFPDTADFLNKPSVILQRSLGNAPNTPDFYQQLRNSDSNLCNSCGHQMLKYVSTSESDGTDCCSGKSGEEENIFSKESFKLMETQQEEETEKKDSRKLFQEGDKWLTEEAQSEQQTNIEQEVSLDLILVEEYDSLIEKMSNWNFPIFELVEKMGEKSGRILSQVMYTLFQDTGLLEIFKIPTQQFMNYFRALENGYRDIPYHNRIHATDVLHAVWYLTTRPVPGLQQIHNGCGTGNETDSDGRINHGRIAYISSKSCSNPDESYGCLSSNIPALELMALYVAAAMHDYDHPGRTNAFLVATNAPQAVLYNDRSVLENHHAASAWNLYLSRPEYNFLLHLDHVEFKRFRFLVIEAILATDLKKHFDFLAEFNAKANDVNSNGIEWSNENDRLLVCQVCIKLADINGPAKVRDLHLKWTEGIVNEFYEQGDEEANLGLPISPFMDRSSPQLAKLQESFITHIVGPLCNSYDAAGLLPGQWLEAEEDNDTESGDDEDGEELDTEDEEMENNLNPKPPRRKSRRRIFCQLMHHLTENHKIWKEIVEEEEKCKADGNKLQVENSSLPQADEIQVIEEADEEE
T3 sequence (Q14432 677-1141): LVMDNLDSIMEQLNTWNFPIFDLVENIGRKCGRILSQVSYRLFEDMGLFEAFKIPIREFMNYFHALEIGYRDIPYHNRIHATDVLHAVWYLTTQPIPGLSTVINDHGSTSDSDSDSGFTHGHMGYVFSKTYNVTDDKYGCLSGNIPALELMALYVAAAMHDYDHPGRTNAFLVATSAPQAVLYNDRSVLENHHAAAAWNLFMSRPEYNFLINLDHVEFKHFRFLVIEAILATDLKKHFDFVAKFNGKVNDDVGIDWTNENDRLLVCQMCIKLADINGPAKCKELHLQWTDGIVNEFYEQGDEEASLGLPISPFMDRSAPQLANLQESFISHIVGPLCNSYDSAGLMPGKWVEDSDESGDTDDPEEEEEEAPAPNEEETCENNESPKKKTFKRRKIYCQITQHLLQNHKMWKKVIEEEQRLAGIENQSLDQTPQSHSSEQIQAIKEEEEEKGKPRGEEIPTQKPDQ
T4 sequence (Q14432 whole entry): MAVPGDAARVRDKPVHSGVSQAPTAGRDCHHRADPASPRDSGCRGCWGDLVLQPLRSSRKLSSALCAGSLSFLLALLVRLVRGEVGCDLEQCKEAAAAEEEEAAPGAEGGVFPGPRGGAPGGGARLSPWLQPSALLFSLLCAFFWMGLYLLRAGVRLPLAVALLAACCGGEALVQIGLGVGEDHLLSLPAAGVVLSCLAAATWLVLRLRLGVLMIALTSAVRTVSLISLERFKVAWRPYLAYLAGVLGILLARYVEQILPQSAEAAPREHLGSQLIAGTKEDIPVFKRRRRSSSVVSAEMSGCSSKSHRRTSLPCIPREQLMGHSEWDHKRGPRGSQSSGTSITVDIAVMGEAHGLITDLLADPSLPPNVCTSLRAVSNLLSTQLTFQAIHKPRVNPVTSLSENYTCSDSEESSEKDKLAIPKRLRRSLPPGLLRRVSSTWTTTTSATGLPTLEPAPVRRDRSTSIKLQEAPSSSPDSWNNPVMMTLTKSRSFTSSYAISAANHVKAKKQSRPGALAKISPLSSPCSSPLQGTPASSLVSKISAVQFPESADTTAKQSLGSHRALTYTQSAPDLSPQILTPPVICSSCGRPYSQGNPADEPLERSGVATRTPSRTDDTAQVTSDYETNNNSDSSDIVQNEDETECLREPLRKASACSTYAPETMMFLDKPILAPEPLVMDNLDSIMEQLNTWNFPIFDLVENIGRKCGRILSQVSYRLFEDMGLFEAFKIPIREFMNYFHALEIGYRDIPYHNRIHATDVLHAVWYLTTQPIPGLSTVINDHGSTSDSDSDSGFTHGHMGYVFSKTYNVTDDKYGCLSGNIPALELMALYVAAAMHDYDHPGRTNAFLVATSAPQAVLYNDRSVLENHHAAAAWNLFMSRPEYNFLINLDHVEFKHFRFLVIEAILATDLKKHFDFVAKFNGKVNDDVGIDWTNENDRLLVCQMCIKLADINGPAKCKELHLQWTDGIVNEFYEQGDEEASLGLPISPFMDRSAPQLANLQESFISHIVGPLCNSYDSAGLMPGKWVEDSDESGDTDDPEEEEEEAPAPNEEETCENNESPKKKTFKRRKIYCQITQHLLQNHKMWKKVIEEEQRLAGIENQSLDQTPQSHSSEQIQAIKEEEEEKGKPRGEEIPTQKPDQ
T4 sequence (Q8IYM2 whole entry partner): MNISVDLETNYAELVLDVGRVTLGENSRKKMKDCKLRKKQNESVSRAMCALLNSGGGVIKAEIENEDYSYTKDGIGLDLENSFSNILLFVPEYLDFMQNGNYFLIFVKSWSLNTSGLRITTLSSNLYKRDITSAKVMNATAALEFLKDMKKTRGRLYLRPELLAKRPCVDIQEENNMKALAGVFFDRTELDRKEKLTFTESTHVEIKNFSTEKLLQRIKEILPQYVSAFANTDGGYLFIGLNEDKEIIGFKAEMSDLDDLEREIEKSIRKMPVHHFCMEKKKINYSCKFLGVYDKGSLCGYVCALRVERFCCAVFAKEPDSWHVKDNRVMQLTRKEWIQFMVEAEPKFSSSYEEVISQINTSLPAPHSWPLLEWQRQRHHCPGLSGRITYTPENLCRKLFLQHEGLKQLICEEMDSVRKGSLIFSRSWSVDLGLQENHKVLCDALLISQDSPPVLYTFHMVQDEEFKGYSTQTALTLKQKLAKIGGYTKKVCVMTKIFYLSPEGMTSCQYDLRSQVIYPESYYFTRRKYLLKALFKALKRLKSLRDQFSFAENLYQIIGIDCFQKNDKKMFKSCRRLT
T1 sequence (Q14432 whole entry): as the sequence (Q14432 whole entry) above

| Compound | IC50 (A549) [nM] | IC50 (HeLa) [nM] | IC50 (SKMEL3) [nM] | EC50 (HeLa cells [1]; Homo sapiens) [nM] | IC50 (human full length PDE3A) [nM] | IC50 (PDE3B) [nM] | mean metabolic stability (Fmax) [2] [%] | EC70 HeLa cell viability (HeLa cells [1]) [nM] | selective toxicity in dose-response retest (in words) (NCI-H1734) | Tm (PDE3A(677-1141)) [°C] | PDE3A and SLFN12 complex formation (PDE3A and SLFN12 complex) | caspase activity (apoptosis) (HeLa cells [3]) |
| --- | --- | --- | --- | --- | --- | --- | --- | --- | --- | --- | --- | --- |
| C[C@@H]1CC(=O)NN=C1c1cc(F)c(N2CCOCC2)c(Cl)c1 [Compound 6, (5R)-6-[3-chloro-5-fluoro-4-(morpholin-4-yl)phenyl]-5-methyl-4,5-dihydropyridazin-3(2H)-one] | > 600 | 0.327 | 0.441 | 1.1 | 2.4 | 3.4 | 93 |  |  |  |  |  |
| CCN(CC)c1ccc(C2=NNC(=O)CC2C)cc1[N+](=O)[O-] (stereo not drawn) [DNMDP, 6-(4-(diethylamino)-3-nitrophenyl)-5-methyl-4,5-dihydropyridazin-3(2H)-one] |  |  |  |  |  |  |  | 30 | specifically toxic to the NCI-H1734 cell line | 58.4 ± 0.0 | induced PDE3A and SFLN12 complex formation | Caspase activity was detected |
